Assay results taken from article PMC10747822 (Pharmaceutics, 2023).
Read-outs that look alike come from different tables or passages of the source. Where a SMILES comes first, the peptide text is derived from it. [ ]: non-standard residue; d: D form. The star is where a group is joined. NH(4-amidinobenzyl) = N=C(N)c1ccc(CN*)cc1

Columns and labels:
[1] = Bench-top stability in mouse plasma; type: in vitro ADME; conditions: mouse plasma anti-coagulated with Li-heparin, minimally diluted, room temperature
Procedure: (§1) To investigate peptide stability, minimally diluted plasma or blood samples were generated through the addition of 10 µL of a spiking solution (50,000 ng/mL) to 490 µL of the pertinent biological matrix, resulting in a sample concentration of 1000 ng/mL. Samples (withdrawal of duplicates of 20 µL) were measured immediately after preparation and again after 1 and 2 h. Stability was evaluated via the comparison of peak area ratios of analyte and IS.
To determine which biological matrix is best suited for pharmacokinetic experiments in mice, we investigated the bench-top stability of Ac-[D-Leu]LLLRVK-amba in plasma and fresh whole blood at room temperature over a 2 h period (Figure 3). In plasma, anti-coagulated with Li-heparin, Ac-[D-Leu]LLLRVK-amba was very rapidly degraded.

[2] = Stability in human whole blood; type: in vitro ADME; conditions: human whole blood (K-EDTA), over at least 2 h; 1000 ng/mL, room temperature; UPLC-MS/MS
Procedure: as §1
Because an isotopically labeled analog of Ac-[D-Leu]LLLRVK-amba was used as IS, potential variations in (negligible) matrix effects can be efficiently balanced by the IS due to its identical physicochemical characteristics. As a consequence, whole blood from other species is appropriate for calibration and QC preparation. Therefore, whole blood from human donors was used for these purposes, which also helps to reduce animal sacrifice.

[3] = Metabolite identification / degradation in mouse plasma by HRMS; type: in vitro ADME; conditions: minimally diluted mouse plasma
Procedure: Metabolite identification experiments were performed in minimally diluted mouse plasma at a Ac-[D-Leu]LLLRVK-amba concentration of 20 µg/mL. Minimally diluted plasma samples were incubated at room temperature and analyzed after 0, 0.5, 4, and 16 h. Samples were depleted from proteins via precipitation with a 2-fold excess of ACN + 0.1% FA and diluted with one equivalent of water + 0.1% FA for direct infusion onto the mass spectrometer.
High-resolution mass spectrometric (HRMS) determinations for the investigation of Ac-[D-Leu]LLLRVK-amba metabolism/degradation in plasma were performed on a Xevo G2-XS QTof (Waters, Milford, MA, USA) equipped with a heated Z-spray ESI source. Measurements were performed via direct infusion using the integrated infusion pump with positive ion sensitivity mode.

[4] = Blood pharmacokinetics in mice after intravenous and intraperitoneal injection; type: in vivo, C57Bl/6 female mice; conditions: for half-life: C57Bl/6, mouse, whole blood sampled at 20, 40, 60, 120 min, non-compartmental
Procedure: Animal studies were approved by the regulatory authorities (Regierungspräsidium Karlsruhe of the state of Baden-Württemberg/Germany, 35-9185.81/G-145/21) and fully complied with European and national regulations for the care and use of laboratory animals (2010/63/EU). Eight- to ten-week-old C57Bl/6 female mice (Janvier) were used for the study.
The animals were administered 4 mg/kg Ac-[D-Leu]LLLRVK-amba in 0.100 mL 0.9% sodium chloride (NaCl) solution per mouse. Four animals received the peptide as intraperitoneal injection, and three animals as intravenous bolus injection into the tail vein. Blood samples were taken 20, 40, 60, and 120 min after administration by collecting a drop of blood from puncture of the facial vein into EDTA tubes (KABE Labortechnik, Nümbrecht, Germany). Whole-blood samples were immediately snap-frozen in liquid nitrogen and stored at −80 °C until analysis.
Blood samples for calibration and QC purposes were generated through the addition of 25 µL of the pertinent spike solution to 20 µL of blank blood and the subsequent addition of 25 µL of IS solution. Calibration samples were produced at 10, 30, 100, 300, 1000, 3000, and 10,000 ng/mL, and QC samples were produced at concentrations of 10, 30, 3750, and 7500 ng/mL. For study sample processing, 20 µL of each sample was added to 25 µL of IS solution, and 25 µL of ACN/H2O 1/1 + 0.1% FA was added for volume compensation to ensure that sample preparation matches that of study blood samples. For stability reasons, each sample was immediately depleted from proteins by adding 150 µL ACN including 0.1% FA. Samples were processed individually and kept frozen until processing. Subsequently, samples were centrifuged at 13,200× g for 5 min. From the extracts, 10 µL was transferred to 400 µL of ACN/H2O 1/19 + 0.1% FA in wells of a 96-well collection plate (Waters, Milford, MA, USA).
Calibration curves were determined with 1/x^2 weighted linear regression using peak area ratios of the analyte to IS. This calculation was performed using the software TargetLynx V4.2 (Waters, Milford, MA, USA). Blood pharmacokinetics were determined with the software Kinetica (v 5.0; Thermo Fisher Scientific, Waltham, MA, USA). Pharmacokinetic analyses were performed using standard non-compartmental methods. The elimination rate (λ) was calculated by linear regression of ln-transformed concentrations from the terminal concentration decline, and the half-life was calculated as ln 2 divided by λ. Standard calculations were performed using Microsoft Office Excel 2010 (Mountain View, CA, USA).

[5] = 37 °C, 500 µg/mL; cited from earlier work
Procedure: However, these were conducted at a substantially higher concentration of Ac-[D-Leu]LLLRVK-amba of 500 µg/mL compared to the 1 µg/mL investigated here. […] Such lower stability in plasma compared to whole blood was already reported for several peptides.

[6] = system: LNCaP xenograft; conditions: cited from earlier work
Text: A major challenge in the development of peptide therapeutics is their susceptibility to enzymatic hydrolysis in biological systems. A primary mechanism of enzymatic degradation of small peptides in the systemic circulation is peptidase-mediated hydrolysis, especially of terminal amino acids by exopeptidase activity. Ac-[D-Leu]LLLRVK-amba comprises stability-enhancing modifications at both peptide termini: a D-amino acid at the N-terminus and an amba-moiety as a decarboxylated arginine variant at the C-terminus. Both modifications impair substrate properties for exopeptidases and thus inc ... || The pharmacokinetics of Ac-[D-Leu]LLLRVK-amba was already determined after intravenous bolus injection. With a half-life of only 9 min, this route of administration only produced a short period of potentially effective concentrations. […] Therefore, we aimed at flattening the pharmacokinetic profile with alternate routes of administr ...

CC(=O)N[C@H](CC(C)C)C(=O)N[C@@H](CC(C)C)C(=O)N[C@@H](CC(C)C)C(=O)N[C@@H](CC(C)C)C(=O)N[C@@H](CCCNC(=N)N)C(=O)N[C@H](C(=O)N[C@@H](CCCCN)C(=O)NCc1ccc(C(=N)N)cc1)C(C)C [Ac-[D-Leu]LLLRVK-amba] (Ac-[dL]LLLRVK-{NH(4-amidinobenzyl)})
half-life at 1000 ng/mL ([1]; CD-1, 1 µg/mL (1000 ng/mL), sampled at 0, 1 and 2 h, duplicates of 20 µL, UPLC-MS/MS peak area ratio analyte/IS, read-out: calculated half-life (t1/2) in plasma (converted)): 28.8 min
calculated half-life (t1/2) in plasma ([1]; 1 µg/mL, 0, 1 and 2 h, duplicates, UPLC-MS/MS, same value given in min): 29 min
degradation in human whole blood [2]: no detectable degradation
metabolites / degradation products in mouse plasma ([3]; 20 µg/mL, room temperature over 16 h, HRMS, neither peptide bond hydrolysis nor oxidation products): no traces of metabolites were observed
stability in mouse plasma at 20 µg/mL ([3]; room temperature, 0, 0.5, 4 and 16 h, HRMS direct infusion (m/z 50-1200)): several hours
level at 2 h ([4]; female, C57Bl/6, ip, mouse #1, 2 h after intraperitoneal administration of 4 mg/kg, whole blood, UPLC-MS/MS, single sample, read-out: calculated blood concentration): 15.8 ng/mL
half-life ([4]; female, ip, mice, 4 mg/kg intraperitoneal, n = 4, UPLC-MS/MS, read-out: half-life after intraperitoneal administration): 15.9 ± 1 min
half-life ([4]; female, mice, 4 mg/kg intravenous bolus into tail vein, n = 3, UPLC-MS/MS, read-out: half-life after intravenous injection): 21 ± 1.6 min
intraperitoneal absorption ([4]; mice, 4 mg/kg intraperitoneal vs intravenous, judged by partial profiles, bioavailability not calculable): very efficient
half-life in Na-heparin mouse plasma [5]: 1080 min
efficacy in mouse xenograft models of prostate cancer ([6]; daily intravenous and intratumoral injection of 2 mg/kg): demonstrated
efficacy in treating prostate cancer in LNCaP xenograft mice, by route ([6]; intratumoral vs intravenous administration): substantially higher when injected intratumorally than when administered intravenously
